Assay results published in patent US20210361578A1, “MEK1/2 INHIBITOR-LOADED MICROPARTICLE FORMULATION” (University of Iowa Research Foundation, priority 2020, published 2021).
“Also recorded” adds a separate entry of the source.

Tests used:
[1] = In vitro drug release of PD98059-loaded microparticles (Examples 1/3, centrifugation and medium replacement); format: physicochemical; details: PD98059 powder; DPBS with 0.4% w/v Tween 80, 37° C.
Procedure: A weighed amount of the microparticles was suspended in 5 ml of the release medium (Dulbecco's phosphate buffered saline, DPBS, Life Science, Waltham, Mass.) that contains 0.4% w/v Tween 80 at an amount equivalent to 0.065 mg microparticles in 50 ml tube (n=3). The tubes were placed in an orbital shaker (New Brunswick Scientific, Edison, N.J.) operating at 300 rpm and 37° C. At pre-determined time points, the tube was centrifuged (1000×g for 5 min) and the whole volume of the release medium (5 ml) was removed and replaced completely with fresh medium in which the pellet was re-suspended. The concentration of PD98059 was measured in the samples using the HPLC method described below. The standard curve range was 0.125-10 μg/ml, and the r^2 value was 0.9998.
An Agilent Infinity 1100 HPLC (Santa Clara, Calif.) was used for to analyze PD98059 content and release of the microparticles. […] The flow rate used was 1 ml/min at room temperature, and the wavelength at which PD98059 was detected at 275 nm.
A weighed amount of the microparticles was suspended in 5 ml of the release medium (Dulbecco's phosphate buffered saline, DPBS, Life Science, Waltham, Mass.) that contains 0.4% w/v Tween 80 at an amount equivalent to 0.065 mg microparticles in 50 ml tube (n=3). […] The concentration of PD98059 was measured in the samples using the HPLC method described below. […]

[2] = Pharmacokinetics and organ levels of PD98059 following IV injection in healthy rats; format: in vivo
Procedure: 1: Pharmacokinetics of PD98059. Rats were anaesthetized using urethane and a canula was inserted in the femoral vein. A solution of PD98059 dissolved in 10% Tween 80 in sterile 1× DPBS at a concentration of 0.5 mg/ml (total volume 2 ml) was administered slowly by intravenous infusion. After 5, 15, 30, 60, 180, and 360 minutes, blood samples were withdrawn from rats. Major organs (liver, kidney, brain, and heart) were collected from rats after 1 and 3 hours (n=3/time point).
All blood samples were collected into 4 ml BD Vacutainer® blood collection tubes (K2-EDTA, Becton, Dickinson, and Company, Franklin Lakes, N.J.). Plasma samples were collected by centrifugation (3,300×g, 15 min), and frozen at −80° C. until analyzed. Plasma samples were thawed on ice, and a volume of 100 μl of plasma was transferred to a 15 ml tube, and spiked with 15 μl of the internal standard (IS) solution (10 μg/ml of 7-hydroxyfiavone in methanol). Collected organs were rinsed in PBS, then frozen at −80° C. For organs, a portion of each organ (200-400 mg) was accurately weighed and homogenized (Fisher Brand Bead Mill 4 Homogenizer, Hampton, N.H.) in 250 μl of 1× DPBS using 20-25 2.5 mm ceramic beads per sample, and spiked with 15 μl of the internal standard (IS) solution. One ml of cold acetonitrile was added to 100 μl of plasma samples or 400 μl of the tissue homogenate and vortexed for 1 min. The samples were kept on ice for 15 min to precipitate the proteins, then the tubes were centrifuged (4° C., 3,300×g, 10 min) and the supernatant was collected, and evaporated under nitrogen stream.
In the case of protocols 1 and 2, the residue in each tube was then dissolved in the mobile phase (described in the HPLC section below), centrifuged (12,000×g, 5 min), and the supernatant was injected in the HPLC and analyzed by the method described below. A standard curve was prepared using plasma and tissues collected from naive rats. These plasma or tissue homogenate samples were spiked with 15 μl of the IS solution as mentioned above, in addition to 15 μl of standard solutions of PD98059 in methanol at different concentrations. Pharmacokinetic parameters were calculated using PK Solver.
An Agilent HPLC workstation was used for sample analysis (Agilent Infinity 1100, Santa Clara, Calif.) that consisted of an Agilent quaternary pump, automatic injection port, and Agilent diode array detector (Agilent Corporation, Santa Clara, Calif.). A RP-C18 column was used for analysis (Waters Symmetry, 5 μm pore size, 4.6 mm×150 mm, Milford, Mass.). The mobile phase consisted of methanol: water 70:30 with 0.1% v/v trifluoroacetic acid, and the flow rate was 1 ml/min at room temperature. The detection wavelength was set to 275 nm.

[3] = tested on: PVN neuronal excitation and sympathetic nerve activity; details: cited from earlier work
[4] = tested on: plasma levels of norepinephrine; PVN p-ERK1/2; details: HF rats, cited from earlier work
[5] = tested on: MEK; details: Dudley et al.; cited from earlier work

COc1cccc(-c2cc(=O)c3ccccc3o2)c1N [PD98059]
time for 80% of the unencapsulated drug to dissolve in the release medium [1]: 24 h
AUC0-t ([2]; IV injection of 1 mg of PD98059 in solution, non-compartmental analysis): 2378.7 ng·h/mL
brain PD98059 level at 1 hour ([2]; healthy rats, IV 1 mg): approximately 410 ng/g
brain PD98059 level at 3 hours ([2]; healthy rats, IV 1 mg): ~76 ng/g
drug levels in major organs (liver, kidney, brain, heart) ([2]; healthy rats, IV 1 mg, 1 and 3 hours): drug levels in the liver and kidney were comparatively higher than those in the brain and heart
crossing of the blood brain barrier ([2]; rats): a significant portion of the drug crossed the blood brain barrier; also recorded: found to cross the blood brain barrier
elimination half-life ([2]; rats): above 1 hour
elimination half-life in plasma ([2]; rats, IV injection of PD98059 solution, 1 mg): 1.22 h
pharmacokinetic model that fits the data ([2]; rats, IV, PK Solver): 2-compartment model
heart rate ([3]; HF rats, 1-h ICV infusion, compared to SHAM or untreated animals): significantly decreased
PVN neuronal excitation and (renal) sympathetic nerve activity ([3]; heart failure rats, 1-hour ICV infusion): decreased; also recorded: inhibited
plasma norepinephrine levels ([4]; ICV infusion for 4 weeks): significant reduction; also recorded: reduced; also recorded: normalized
PVN p-ERK1/2 ([4]; long term ICV infusion): successfully decreased
in vitro activity of MEK once PD98059 was removed from the medium [5]: fully and instantaneously restored
